Laboratory results as given in the supplement of paper PMC10307832.

What was measured:
Assay in all cases: relative viability (nuclei count vs DMSO), 5 days (fraction); higher = more cells survive
[1] = tested on: A-427
Summary of the method: (§1)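 Dosing by pin tool came one day after lung cancer cell lines were seeded in 1536-well plates, using either one drug or a fixed anchor-drug dose plus five library-drug doses (not always all listed) in √10 steps. After 5 days, nuclei were counted on 4× images. Relative viability is treated-well nuclei count divided by vehicle-well nuclei count, and values are medians of duplicate plates.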

[2] = tested on: HCC-15
Summary of the method: as §1

[3] = tested on: HCC-78
Summary of the method: as §1

[4] = tested on: HOP-62
Summary of the method: as §1

[5] = tested on: LC-2-ad
Summary of the method: as §1

[6] = tested on: LXF-289
Summary of the method: as §1

[7] = tested on: NCI-H1734
Summary of the method: as §1

[8] = tested on: NCI-H1755
Summary of the method: as §1

[9] = tested on: NCI-H1792
Summary of the method: as §1

[10] = tested on: NCI-H1915
Summary of the method: as §1

[11] = tested on: NCI-H1975
Summary of the method: as §1

[12] = tested on: NCI-H2126
Summary of the method: as §1

[13] = tested on: NCI-H2228
Summary of the method: as §1

[14] = tested on: NCI-H2347
Summary of the method: as §1

[15] = tested on: NCI-H358
Summary of the method: as §1

[16] = tested on: NCI-H647
Summary of the method: as §1

[17] = tested on: PC-3 [JPC-3]
Summary of the method: as §1

[18] = tested on: RERF-LC-KJ
Summary of the method: as §1

[19] = tested on: SK-LU-1
Summary of the method: as §1

[20] = tested on: SW 1573
Summary of the method: as §1

COc1nc(C)cnc1NS(=O)(=O)c1cccnc1-c1ccc(-c2nnco2)cc1 [Zibotentan] + C[C@]1(O)C[C@@H](c2nc(-c3ccc4ccc(-c5ccccc5)nc4c3)c3c(N)nccn32)C1 [Linsitinib] (partner 1 µM)
relative viability ([1]; first compound 0.08 µM): 1.12
relative viability ([1]; first compound 0.253 µM): 1.17
relative viability ([1]; first compound 0.8 µM): 1.14
relative viability ([1]; first compound 2.53 µM): 1.12
relative viability ([2]; first compound 0.08 µM): 0.905
relative viability ([2]; first compound 0.253 µM): 0.912
relative viability ([2]; first compound 0.8 µM): 0.867
relative viability ([2]; first compound 2.53 µM): 0.878
relative viability ([3]; first compound 0.08 µM): 0.548
relative viability ([3]; first compound 0.253 µM): 0.503
relative viability ([3]; first compound 0.8 µM): 0.411
relative viability ([3]; first compound 2.53 µM): 0.49
relative viability ([4]; first compound 0.08 µM): 0.805
relative viability ([4]; first compound 0.253 µM): 1.06
relative viability ([4]; first compound 0.8 µM): 0.992
relative viability ([4]; first compound 2.53 µM): 1.29
relative viability ([5]; first compound 0.08 µM): 0.904
relative viability ([5]; first compound 0.253 µM): 0.828
relative viability ([5]; first compound 0.8 µM): 0.87
relative viability ([5]; first compound 2.53 µM): 0.976
relative viability ([6]; first compound 0.08 µM): 1.01
relative viability ([6]; first compound 0.253 µM): 0.998
relative viability ([6]; first compound 0.8 µM): 0.969
relative viability ([6]; first compound 2.53 µM): 1.01
relative viability ([7]; first compound 0.08 µM): 1.01
relative viability ([7]; first compound 0.253 µM): 0.815
relative viability ([7]; first compound 0.8 µM): 0.936
relative viability ([7]; first compound 2.53 µM): 0.975
relative viability ([8]; first compound 0.08 µM): 0.99
relative viability ([8]; first compound 0.253 µM): 0.967
relative viability ([8]; first compound 0.8 µM): 1.03
relative viability ([8]; first compound 2.53 µM): 1.03
relative viability ([9]; first compound 0.08 µM): 0.426
relative viability ([9]; first compound 0.253 µM): 0.448
relative viability ([9]; first compound 0.8 µM): 0.396
relative viability ([9]; first compound 2.53 µM): 0.556
relative viability ([10]; first compound 0.08 µM): 0.917
relative viability ([10]; first compound 0.253 µM): 1.19
relative viability ([10]; first compound 0.8 µM): 1.11
relative viability ([10]; first compound 2.53 µM): 1.08
relative viability ([11]; first compound 0.08 µM): 0.947
relative viability ([11]; first compound 0.253 µM): 0.895
relative viability ([11]; first compound 0.8 µM): 0.94
relative viability ([11]; first compound 2.53 µM): 0.884
relative viability ([12]; first compound 0.08 µM): 0.733
relative viability ([12]; first compound 0.253 µM): 0.625
relative viability ([12]; first compound 0.8 µM): 0.745
relative viability ([12]; first compound 2.53 µM): 0.716
relative viability ([13]; first compound 0.08 µM): 0.722
relative viability ([13]; first compound 0.253 µM): 0.467
relative viability ([13]; first compound 0.8 µM): 0.903
relative viability ([13]; first compound 2.53 µM): 0.728
relative viability ([14]; first compound 0.08 µM): 0.982
relative viability ([14]; first compound 0.253 µM): 0.833
relative viability ([14]; first compound 0.8 µM): 1.11
relative viability ([14]; first compound 2.53 µM): 0.969
relative viability ([15]; first compound 0.08 µM): 0.782
relative viability ([15]; first compound 0.8 µM): 0.778
relative viability ([15]; first compound 2.53 µM): 0.805
relative viability ([16]; first compound 0.08 µM): 1.12
relative viability ([16]; first compound 0.253 µM): 1.14
relative viability ([16]; first compound 0.8 µM): 1.11
relative viability ([16]; first compound 2.53 µM): 1.15
relative viability ([17]; first compound 0.08 µM): 0.931
relative viability ([17]; first compound 0.253 µM): 0.964
relative viability ([17]; first compound 0.8 µM): 1.01
relative viability ([17]; first compound 2.53 µM): 0.98
relative viability ([18]; first compound 0.08 µM): 0.885
relative viability ([18]; first compound 0.253 µM): 0.859
relative viability ([18]; first compound 0.8 µM): 0.803
relative viability ([18]; first compound 2.53 µM): 0.892
relative viability ([19]; first compound 0.08 µM): 0.833
relative viability ([19]; first compound 0.253 µM): 0.888
relative viability ([19]; first compound 0.8 µM): 1.15
relative viability ([19]; first compound 2.53 µM): 1.22
relative viability ([20]; first compound 0.08 µM): 1.04
relative viability ([20]; first compound 0.253 µM): 0.783
relative viability ([20]; first compound 0.8 µM): 0.863
relative viability ([20]; first compound 2.53 µM): 0.878

O=c1cc(N2CCOCC2)oc2c(-c3cccc4c3sc3ccccc34)cccc12 + C[C@]1(O)C[C@@H](c2nc(-c3ccc4ccc(-c5ccccc5)nc4c3)c3c(N)nccn32)C1 [Linsitinib] (partner 1 µM)
relative viability ([1]; first compound 0.01 µM): 1.13
relative viability ([1]; first compound 0.03162 µM): 1.12
relative viability ([1]; first compound 0.1 µM): 1.23
relative viability ([1]; first compound 0.3162 µM): 1.12
relative viability ([1]; first compound 1 µM): 1.11
relative viability ([2]; first compound 0.01 µM): 0.786
relative viability ([2]; first compound 0.03162 µM): 0.869
relative viability ([2]; first compound 0.1 µM): 0.936
relative viability ([2]; first compound 0.3162 µM): 0.902
relative viability ([2]; first compound 1 µM): 0.847
relative viability ([3]; first compound 0.01 µM): 0.542
relative viability ([3]; first compound 0.03162 µM): 0.525
relative viability ([3]; first compound 0.1 µM): 0.559
relative viability ([3]; first compound 0.3162 µM): 0.51
relative viability ([3]; first compound 1 µM): 0.53
relative viability ([4]; first compound 0.01 µM): 0.991
relative viability ([4]; first compound 0.03162 µM): 1.12
relative viability ([4]; first compound 0.1 µM): 0.909
relative viability ([4]; first compound 0.3162 µM): 0.933
relative viability ([4]; first compound 1 µM): 0.989
relative viability ([5]; first compound 0.01 µM): 0.975
relative viability ([5]; first compound 0.1 µM): 0.801
relative viability ([5]; first compound 0.3162 µM): 0.714
relative viability ([5]; first compound 1 µM): 0.781
relative viability ([6]; first compound 0.01 µM): 0.983
relative viability ([6]; first compound 0.03162 µM): 0.927
relative viability ([6]; first compound 0.1 µM): 0.978
relative viability ([6]; first compound 0.3162 µM): 0.978
relative viability ([6]; first compound 1 µM): 0.897
relative viability ([7]; first compound 0.01 µM): 0.963
relative viability ([7]; first compound 0.03162 µM): 1.03
relative viability ([7]; first compound 0.1 µM): 0.906
relative viability ([7]; first compound 0.3162 µM): 0.843
relative viability ([7]; first compound 1 µM): 0.89
relative viability ([8]; first compound 0.01 µM): 1.04
relative viability ([8]; first compound 0.03162 µM): 0.98
relative viability ([8]; first compound 0.1 µM): 1.03
relative viability ([8]; first compound 0.3162 µM): 1.03
relative viability ([8]; first compound 1 µM): 1.01
relative viability ([9]; first compound 0.01 µM): 0.514
relative viability ([9]; first compound 0.03162 µM): 0.513
relative viability ([9]; first compound 0.1 µM): 0.564
relative viability ([9]; first compound 0.3162 µM): 0.502
relative viability ([9]; first compound 1 µM): 0.574
relative viability ([10]; first compound 0.01 µM): 1.04
relative viability ([10]; first compound 0.03162 µM): 1.15
relative viability ([10]; first compound 0.1 µM): 0.636
relative viability ([10]; first compound 0.3162 µM): 1.1
relative viability ([10]; first compound 1 µM): 1.08
relative viability ([11]; first compound 0.01 µM): 0.833
relative viability ([11]; first compound 0.03162 µM): 0.922
relative viability ([11]; first compound 0.1 µM): 0.94
relative viability ([11]; first compound 0.3162 µM): 0.929
relative viability ([11]; first compound 1 µM): 1
relative viability ([12]; first compound 0.01 µM): 0.698
relative viability ([12]; first compound 0.03162 µM): 0.664
relative viability ([12]; first compound 0.1 µM): 0.691
relative viability ([12]; first compound 0.3162 µM): 0.702
relative viability ([12]; first compound 1 µM): 0.725
relative viability ([13]; first compound 0.03162 µM): 0.571
relative viability ([13]; first compound 0.1 µM): 0.539
relative viability ([13]; first compound 0.3162 µM): 0.904
relative viability ([13]; first compound 1 µM): 0.74
relative viability ([14]; first compound 0.01 µM): 1.02
relative viability ([14]; first compound 0.03162 µM): 0.943
relative viability ([14]; first compound 0.1 µM): 0.962
relative viability ([14]; first compound 0.3162 µM): 0.926
relative viability ([14]; first compound 1 µM): 0.945
relative viability ([15]; first compound 0.01 µM): 0.631
relative viability ([15]; first compound 0.03162 µM): 0.781
relative viability ([15]; first compound 0.1 µM): 0.731
relative viability ([15]; first compound 0.3162 µM): 0.812
relative viability ([15]; first compound 1 µM): 0.736
relative viability ([16]; first compound 0.01 µM): 1.02
relative viability ([16]; first compound 0.03162 µM): 1.24
relative viability ([16]; first compound 0.1 µM): 1.22
relative viability ([16]; first compound 0.3162 µM): 1.09
relative viability ([16]; first compound 1 µM): 0.954
relative viability ([17]; first compound 0.01 µM): 0.967
relative viability ([17]; first compound 0.03162 µM): 0.865
relative viability ([17]; first compound 0.1 µM): 0.943
relative viability ([17]; first compound 0.3162 µM): 0.916
relative viability ([17]; first compound 1 µM): 0.913
relative viability ([18]; first compound 0.01 µM): 0.908
relative viability ([18]; first compound 0.03162 µM): 0.937
relative viability ([18]; first compound 0.1 µM): 0.914
relative viability ([18]; first compound 0.3162 µM): 0.869
relative viability ([18]; first compound 1 µM): 0.874
relative viability ([19]; first compound 0.03162 µM): 1.25
relative viability ([19]; first compound 0.1 µM): 1.12
relative viability ([19]; first compound 0.3162 µM): 1.19
relative viability ([19]; first compound 1 µM): 0.969
relative viability ([20]; first compound 0.01 µM): 0.955
relative viability ([20]; first compound 0.03162 µM): 0.832
relative viability ([20]; first compound 0.1 µM): 0.746
relative viability ([20]; first compound 0.3162 µM): 0.813
relative viability ([20]; first compound 1 µM): 0.653
